The values that follow are results of earlier work, collected in patent publication US20130046087A1, “Substituted Cyclodextrin Derivatives Useful As Intermediates For Producing Biologically Active Materials” (Arcarios BV, priority 2010, published 2013).

For this data set, the system named is rabbit model of experimental osteoarthritis. Particulars: subcutaneously administered, per Osteoarthritis and Cartilage (2008) 16:986-993.

For the substance β-cyclodextrin polysulfate, the “effect on cartilage lesions and osteocyte formation in the affected joints” value was “reduced the cartilage lesions and osteocyte formation”.
